Assays:
[1] = tested on: Mdm2+/+p53-/- MEF cell lines; assay: HGF effect on SRF-Enigma-Mdm2 pathway with or without PD98059; format: cell-based, mouse; details: Ad-p53 or Ad-LacZ induced
Description: Since an MAP kinase is known to be associated with SRF expression by cell growth factor (J Physiol Pharmacol 53, 147-157, 53, 2002), the present inventors hypothesized that an MAP kinase is associated with regulation of SRF-Enigma-Mdm2 pathway, and tested by using PD98059, MAP kinase-specific inhibitor. The present inventors treated the cells with HGF and with or without PD98059 after inducing Ad-p53 or Ad-LacZ into Mdm2^+/+p53^−/− MEF cell lines. As the result, PD98059 abolished the HGF effect on SRF-Enigma-Mdm2 pathway (FIG. 10E).

[2] = tested on: MEF (mouse embryonic fibroblast); assay: Serum response of SRF-Enigma-Mdm2 pathway in MEF; format: cell-based
Description: (§1) The present inventors identified serum response by using MRC5 (human normal fibroblast), MEF (mouse embryonic fibroblast) to identify presence of SRF-Enigma-Mdm2 pathway in normal cells. In case of MRC5, activity of SRF-Enigma-Mdm2 pathway by serum was inhibited when siSRF (10, 15 μg) is induced or PD98059 is present; in case of MEF, activity of SRF-Enigma-Mdm2 pathway was inhibited by PD98059 (FIGS. 12A and 12C). Thus, an amount of protein by transcriptional activity increased for SRF, Enigma, transcript level for Mdm2 (p1-Mdm2) and p53 was unvaried. However, transcript level for p2-Mdm2 changed dependently on an amount of p53 expression (FIGS. 12B and 12D).

[3] = tested on: MRC5 (human normal fibroblast); assay: Serum response of SRF-Enigma-Mdm2 pathway in MRC5; format: cell-based
Description: as §1

[4] = tested on: Enigma promoter; assay: SRE-Luc / ΔSRE-Luc Enigma promoter reporter assay; format: cell-based; details: HLK3; 20, 40 ng/ml, 6 hours
Description: After Enigma-Luc was induced into an HLK3 cell line (0.5 μg), was cultured in DMEM with 0.1% […] for 24 hours, and was cultured with 5% and 20% FBS added for 6 hours again, luciferase activity of collected cells were measured. As the result, activity of Enigma-Luc increased dependently on the concentration of serum (FIG. 9B).
After SRE-Luc (0.5 μg), ΔSRE-Luc (0.5 μg), which were produced to test SRF dependence of Enigma expression, were induced into an HLK3 cell line, the cells were cultured in DMEM with 0.1% FBS for 24 hours, and were cultured with 5% and 20% FBS, FGF (20, 40 ng/ml), or HGF (20, 40 ng/ml) added for 6 hours again, luciferase activity of collected cells were measured.

[5] = tested on: HLK3 cell line; assay: HGF effect on SRF-Enigma-Mdm2-p53 pathway, Western blotting; format: cell-based; details: HGF 40, 60 ng/ml, 4 hours before cell collection
Description: The present inventors investigated whether SRF-Enigma-Mdm2 pathway is also regulated by HGF. The present inventors, to show specific relevance of SRF, Enigma, identified changes in each protein by a Western blotting after inducing 10 μg each of siEnigma, siSRF into an HLK3 cell line, culturing them in a condition of removing serum, and processing each with HGF (40, 60 ng/ml) 4 hours before cell collection. […] Furthermore, the present inventors observed a change in Enigma and Mdm2 after directly inducing F-SRF into an HLK3 cell line concentration-wise (5, 10 μg).

[6] = tested on: mouse liver; assay: SRF-Enigma-Mdm2-p53 pathway in mouse liver, Western blotting; format: in vivo, mice (Balb/c); details: HGF 100 μg/kg into tail vein, livers removed time-wise
Description: The present inventors identified a change in SRF-Enigma-Mdm2-p53 by a Western blotting after injecting each of Ad-p53 or Ad-LacZ virus (5×10^8 pfu) into tail vein of mice (Balb/c, Female, Taconic) and after 24 hours injecting HGF (100 μg/kg) into tail vein of mice again, removing livers time-wise. As the result, HGF induced protein expression by transcriptionally activating SRF, Enigma was induced by SRF at transcription level, and an amount of protein increased.
The present inventors, to observe a change in Mdm2-p53 according to a direct change in an amount of Enigma expression, identified an amount of each protein by a Western blotting after injecting or not injecting Ad-p53 into tail vein of mice (Balb/c, Female, Taconic) and after 24 hours injecting Ad-F-Enigma, Ad-LacZ, PBS into tail vein of mice again, removing livers after 48 hours. Furthermore, after injecting Ad-siEnigma, Ad-siControl and PBS into tail vein and injecting HGF into tail vein 8 hours before liver removal.

[7] = target: T1, Mdm2 (Homo sapiens, UniProt Q00987); assay: In vitro binding assay (GST pull-down / IP) of purified proteins; details: proteins purified from E. coli
T1 construct: His; made in house; host or cells: E. coli
T1 sequence (Q00987 whole entry): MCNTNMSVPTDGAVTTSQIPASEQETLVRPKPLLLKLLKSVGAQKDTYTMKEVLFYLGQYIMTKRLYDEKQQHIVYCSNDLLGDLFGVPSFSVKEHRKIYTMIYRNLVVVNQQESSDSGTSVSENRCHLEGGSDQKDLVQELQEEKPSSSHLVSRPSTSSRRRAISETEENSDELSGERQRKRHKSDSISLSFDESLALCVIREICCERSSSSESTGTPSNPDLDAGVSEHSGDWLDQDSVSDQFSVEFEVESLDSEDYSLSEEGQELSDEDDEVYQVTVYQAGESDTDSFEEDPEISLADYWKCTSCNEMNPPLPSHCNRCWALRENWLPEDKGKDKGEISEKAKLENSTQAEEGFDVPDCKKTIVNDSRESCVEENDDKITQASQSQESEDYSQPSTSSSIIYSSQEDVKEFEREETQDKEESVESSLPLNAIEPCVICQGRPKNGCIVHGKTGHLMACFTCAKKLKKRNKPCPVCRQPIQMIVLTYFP
Description: The present inventors, to test interaction between Enigma and Mdm2, generated mutants (F-PDZ, F-PDZ-LIM1, F-LIM) of Enigma in pCMVtaq2B vector by a common PCR cloning method, and produced mutants (GST-1-100, GST-101-491, GST-201-491, GST-301-491) of Mdm2 in pEBG vector by a PCR cloning method. His-Mdm2, Enigma, GST-p53, EniΔLIM3 proteins were respectively separated and purified from E. coli to identify the interaction in vitro.
In vitro binding assay was performed to identify directly in-vitro interaction between respective proteins (1 μg His-Mdm2, 0.5 μg Enigma, 1 μg GST-p53) which are separated and purified from E. coli. Binding between respective proteins were induced after mixing, the bindings between proteins were identified by a GST pull-down and an IP method.
A binding site was determined by using respective mutants produced from Enigma and Mdm2. First, each mutant vector (5 μg) was introduced into a 293 cell line where Hag-Enigma is constitutively expressed, and afterwards binding was identified by GST pull-down and by a Western blotting with a Hag antibody (FIG. 5D). Also, each Enigma mutant (5 μg) and GST-Mdm2 expression vector (5 μg) were introduced into a 293T cell line (ATCC) by a calcium phosphate method. At 24 hours, the cells were collected, and binding was identified by IP with a Flag antibody and by a Western blotting with a GST antibody (FIG. 5E). […]

[8] = target: T1, Mdm2; assay: In vitro ubiquitination assay; format: biochemical
Description: In vitro ubiquitination assay was performed to test self-ubiquitination of Mdm2 by Enigma's binding. After ubiquitin reaction mixture (including E1, E2, His-Ub, ATP) was added and reacted to His-Mdm2 protein (0.5 μg), His-Mdm2 (C464A: 0.5 μg), Enigma protein (0.5, 1 μg), F-EniΔLIM3 (1 μg), a change in self-ubiquitination and binding proteins for Mdm2 were identified by an IP/IB method. As the result, self-ubiquitination of Mdm2 was inhibited by F-Enigma, which binds to Mdm2, and Enigma had no effect on an Mdm2 (C464A) variant where 464-cysteine on the Mdm2 RING finger region was substituted by alanine (FIG. 7C). Also, Enigma stimulated Mdm2-mediated p53 ubiquitination in vitro (FIG. 7D). Thus, Enigma was identified as a determining factor that shifts specificity of Mdm2 E3 ligase from itself toward p53.
PCAF (p300-CBP-associated factor) induces the ubiquitination of Mdm2 (Nat Cell Biol 9, 331-338, 2007). When proteins purified from bacteria and described in FIG. 5-1a were used to perform an in-vitro ubiquitin experiment, Enigma had no effect on Mdm2 ubiquitination by PCAF (FIG. 8A). This event was also tested in an Mdm2^−/−p53^−/− MEF cell line (FIG. 8B).

COc1cccc(-c2cc(=O)c3ccccc3o2)c1N [PD98059]
HGF effect on SRF-Enigma-Mdm2 pathway [1]: abolished
activity of SRF-Enigma-Mdm2 pathway [2]: inhibited
activity of SRF-Enigma-Mdm2 pathway by serum [3]: inhibited

HGF: growth factor
reporter activity of SRE-Luc but not ΔSRE-Luc [4]: increased dependently on the concentration of growth factor
changes in SRF, Enigma, Mdm2, p53 protein [5]: an increase in SRF-Enigma-Mdm2 and a SRF- or Enigma-dependent decrease in p53
amount of protein of Mdm2 and p53 in liver [6]: the amount of protein in Mdm2 increased and simultaneously that of p53 decreased

Enigma: Enigma protein separated and purified from E. coli
binding to Mdm2 in vitro [7]: bound to Mdm2 directly
Mdm2-mediated p53 ubiquitination in vitro [8]: stimulated
Mdm2 ubiquitination by PCAF in vitro [8]: no effect
self-ubiquitination of Mdm2 in vitro ([8]; Enigma protein 0.5, 1 μg, His-Mdm2 0.5 μg): inhibited

From US8404435B2, “Enigma-Mdm2 interaction and uses thereof” (Korea Research Institute of Bioscience and Biotechnology, priority 2009, dated 2013)
